{
  "source": "patent US11992011B2",
  "about": "“Compounds for controlling plant pathogens” (VIB VZW, priority 2017, dated 2024)",
  "key": {"carrot": {"system": "carrot", "assay": "Phytotoxicity of foliar spray in uninfected carrot (Example 1)", "assay_type": "in vivo, Daucus carota", "details": "500 μM foliar spray, 8 plants per treatment", "procedure": "Carrot seeds, cv. Nantes 2 (Vreeken's Zaden, Dordrecht, the Netherlands) were germinated on wet paper for seven days at 21° C. After germination, seedlings were transferred to individual pots filled with potting soil and placed in a growth chamber at 21° C.\n(§1) Unless otherwise mentioned, all chemicals for nematode experiments were applied as a foliar spray consisting of the target compound at a concentration of 300 μM together with 0.1% (v/v) Tween 20 surfactant (Calbiochem) in distilled water. Again unless otherwise mentioned, all treatments for the nematode experiments were carried out three times: one and eight days before pathogen inoculation and seven days after pathogen inoculation. In all cases, plants were sprayed until run-off with an atomizer.\n(§2) Short-term phytotoxicity experiments (Example 1) were analyzed using non-parametric methods. For each variable, overall significance was determined using the Kruskal-Wallis test (Kruskal and Wallis, 1952), followed by a posthoc Conover-Iman test (Conover and Iman, 1981) with Hommel multiplicity correction (Hommel, 1988) if the Kruskal-Wallis test was significant. When only two groups were present, the Wilcoxon-Mann-Whitney test was used (Mann and Whitney, 1947).\n(§3) To test whether C4H inhibitors induce phytotoxic effects in crops, uninfected tomato, wheat and carrot were treated with piperonylic acid (PA), 4-iodobenzoic acid (4-IBA) and piperic acid (PIA) at a concentration of 500 μM through foliar application. At harvest, leaf area (or shoot length in the case of wheat) and primary root length were recorded. The BBCH developmental stage (Lancashire et al., 1991), a measure of developmental retardation, was used to test for effects on development. Finally, the presence of visible signs of phytotoxicity such as chlorosis, discoloration or necrosis was recorded."}, "wheat": {"system": "wheat", "assay": "Phytotoxicity of foliar spray in uninfected wheat (Example 1)", "assay_type": "in vivo, Triticum aestivum", "details": "500 μM foliar spray, 8 plants per treatment", "procedure": "For Examples 1, 5 and 10, seeds of the winter wheat cultivar Sahara (Aveve Agrarisch, Landen, Belgium) were used. Seeds were washed in a 10% ethanol solution to remove any residual traces of fungicide and then germinated on wet paper at room temperature for four days; seeds were transferred to SAP tubes and placed in a growth chamber (25° C., 16 hours per day of light). Plants were watered with 8 ml of half-strength Hoagland solution every two days for the first ten days and with 8 ml of full strength Hoagland solution every two days afterwards.\nas §1, §2, §3"}, "Heterodera schachtii": {"system": "Heterodera schachtii", "assay": "Heterodera schachtii infection in sugar beet (Example 9)", "assay_type": "in vivo", "details": "10 μM PA", "procedure": "Sugar beet seeds (cultivar Jolgeh) were germinated for five days at 25° C. on sterile potting soil saturated with distilled water. Seedlings were transferred to SAP tubes, which were placed in a growth chamber at 24° C. (16h per day of fluorescent lighting). The first two days after transfer, the tubes were covered with a polyethylene film (Saran Film, Dow Chemicals, Midland, USA) to prevent excessive evaporation. Seedlings were watered three times per week with 8 ml of Hoagland solution.\nCysts were collected from sugar beets (cv. Jolgeh) kept in a growing chamber at 21° C. through a flotation protocol. Plant roots and their surrounding soil were placed in a water bath at room temperature and gently agitated, followed by decanting and sieving to allow collection of cysts. Cysts were are-dried for two days and stored until use.\nHatching of cysts was induced by exposing them to a zinc chloride solution (3 mM in distilled water) at 25° C. for three days. Five 100 μl samples were taken from this suspension. The number of J2 juveniles in each sample was counted and the results were averaged. Sugar beet plants were inoculated fourteen days after transfer to SAP with the required volume of suspension to inoculate each plant with an average of 250 J2 nematodes.\nInfection experiments with H. schachtii were performed by inoculating host plants 14 days after transfer to SAP by introducing 250 J2 juveniles to their root system using a micro pipette. Plants were harvested 31 days after inoculation. At this point, the plants were phenotyped by measuring the root and shoot length with a ruler. Cysts were collected through a sucrose flotation protocol and then counted and microscopically assessed for maturity.\nTo test whether the compounds of the invention are effective against other nematodes and in other plant species, PA was tested on the interaction between the dicot crop sugar beet (Beta vulgaris) and the cyst nematode Heterodera schachtii. At this point, it was not known whether dicots would tolerate PA as well as monocots and so a much lower dose (10 μM) was used instead."}, "[1]": {"system": "Fusarium solani (isolate Fso18)", "assay": "Onion seedling emergence with PA seed coating, Fusarium solani (Example 12)", "assay_type": "in vivo", "details": "onion seeds with 300 μM PA coating vs mock coating", "procedure": "Seed coatings were applied by dipping seeds in a coating solution containing 20 g/I high viscosity carboxymethylcellulose (Sigma-Aldrich, Saint Louis, USA) in distilled water as well as 300 μM of the target compound. Seeds were then dried overnight at room temperature.\nOnion seeds were coated with a 300 μM PA solution as outlined in the chemical treatments section. F. oxysporum (isolate Foc26), F. solani (isolate Fso18) and F. proliferatum (isolate Fpr18) were originally extracted from Vietnamese onion fields. Inoculum was obtained as described in the fungal culture section. The inoculum was diluted to a concentration of 1.0×10^7 spores per ml with sterile PBS buffer. The coated seeds were then soaked in the spore solution for one hour. To avoid excessive PA leaching from the PA coating, 100 μM of PA was added to the spore solution.\nAfter soaking in the PA solution, seeds were left to dry for thirty minutes. Twenty seeds were then sowed per pot in potting soil; three pots were used per treatment and per fungal isolate (for a total of 60 seeds per treatment-isolate combination). The pots were covered in cling film and left on a window sill at room temperature. After eight and ten days, the number of germinated seedlings per pot was counted.\nGermination experiments were analyzed by fitting a three-parameter log-logistic model as implemented in the R drc package."}, "[2]": {"details": "infected sugar beet, mean ± SD, n = 8"}},
  "data": [
    {"compound": "O=C(O)c1ccc2c(c1)OCO2", "note": "[PA, Piperonylic acid]", "values": [
      {"measurement": "Leaf Area", "setting": "carrot; mean ± standard deviation", "result": "6.07 ± 2.12", "unit": "cm^2"},
      {"measurement": "BBCH stage", "setting": "carrot; median ± interquartile range", "result": "13 ± 0"},
      {"measurement": "Root length", "setting": "wheat; mean ± standard deviation", "result": "15.75 ± 2.64", "unit": "cm"},
      {"measurement": "Shoot length", "setting": "wheat; mean ± standard deviation", "result": "31.75 ± 2.84", "unit": "cm"},
      {"measurement": "BBCH stage", "setting": "wheat; median ± interquartile range", "result": "13 ± 0"},
      {"measurement": "Number of mature cysts", "setting": "Heterodera schachtii; [2]", "result": "7.5 ± 4.4"},
      {"measurement": "Proportion of mature cysts", "setting": "Heterodera schachtii; [2]", "result": "0.48 ± 0.25"},
      {"measurement": "Total number of cysts", "setting": "Heterodera schachtii; [2]", "result": "15.3 ± 0.7"},
      {"measurement": "reduction of the number of Heterodera schachtii nematodes", "setting": "Heterodera schachtii; sugar beet, statistically insignificant", "result": 20, "unit": "%"},
      {"measurement": "improvement of seedling emergence", "setting": "[1]", "result": "+27%"}
    ]}
  ]
}
